A short description of data set [1]: Rat PK profile (bioavailability, clearance, half-life). The class given is in vivo. The note with it: male, Sprague Dawley, plasma, i.v. dose 0.5 mg/kg. How it is done:
Male Sprague Dawley Rats 300-350 g (Charles River, UK) were group housed, n=3, under a 12 h light/dark cycle with food and water available ad libitum. At 17:00 on the day prior to dosing all food was removed. On the day of dosing animals were weighed, tail marked and dosed via oral gavage with compound at 3 mg/kg in a volume of 5 mL/kg. Animals were culled at 30 min, 1 h and 4 h post dose via intra-peritoneal administration of pentobarbital. Post mortem blood was withdrawn via cardiac puncture, and briefly stored in K2 EDTA blood tubes on ice before being spun at 14,000 g for 4 min at 4° C. Plasma was withdrawn into a 96 well plate, placed on dry ice and stored at −80° C. Brains were quickly dissected and placed on dry ice before storage at −80° C. Bioanalysis of plasma and brain samples is performed as detailed below. Methods were prepared with guidance from industry standard documents.^i,ii
A 10 mM DMSO stock is used to prepare spiking solutions of test compound in the range of 10-100,000 ng/mL in diluent (MeCN:water, 1;1). Calibration lines are prepared in control male Sprague-Dawley Rat plasma at known concentrations in the range of 1-10000 ng/mL by spiking 2.5 μL of calibration spiking solution into 25 μL control plasma. Experimental samples are thawed to RT and 25 μL aliquots are extracted alongside the calibration lines using protein precipitation (agitation for at least 5 min at RT with 400 μL of MeCN containing 25 ng/mL tolbutamide as an internal standard). Protein precipitates are separated from the extracted test compound by centrifugation at 4000 rpm for 5 min, 4° C. The resulting supernatants are diluted in a ratio of 1:2 with a relevant diluent (e.g. 0.1% formic acid in water or 1:1 MeOH:water). Samples are analysed by UPLC-MS/MS on either an API6500 QTrap or Waters 30 TQS mass spectrometer using previously optimised analytical MRM (multiple reaction monitoring) methods, specific to the test compound. The concentration of test compound in isolated samples is determined following analysis of the samples against the two replicates of the calibration line, injected before and after the sample set with an appropriate regression and weighting used. Only samples within 20% of the expected test concentration are included in the calibration line and any samples that fall outside of the limits of the calibration line will be deemed to be less than or above the limit of quantification (LLoQ/ALoQ).
Pharmacokinetic parameters such as bioavailability (% F), clearance (CL), half-life (T½) and volume of distribution are calculated by non-compartmental analysis using Phoenix Winnonlin 64 software (build 8.0). The bioavailability was calculated from p.o. dosed rats, whereas the clearance and half-life were calculated from i.v. dosed rats. Briefly, in vivo plasma concentrations, timepoints and dose values are imported into the software in a compatible format. Plasma concentration for each animal is plotted against time, and the elimination phase identified and selected. The area under the curve for each plot is calculated using a linear trapezoidal linear interpolation from which pharmacokinetic parameters can subsequently be determined. […] Compounds of the invention have much improved clearance (CL) and half-life (T½) compared to the reference examples.

Data set [2] concerns Salmonella typhimurium, strains TA98 and TA100. The experiment in a line: Ames assay (Bacterial Reverse Mutation Test). The settings on record: TA98 and TA100, presence and absence of S-9 mix, up to 5000 μg/plate. In kind it is cell-based. How it is done: Examples 50, 52 and 54 were tested, in vitro, for their ability to induce mutations in 2 histidine dependent auxotrophic mutants of Salmonella typhimurium, strains TA98 and TA100. The mutation screen was conducted using the plate incorporation method and was performed in both the presence and absence of S-9 mix (a liver post-mitochondrial fraction derived from the livers of Aroclor 1254 treated rats). The bacteria were exposed to the test items dissolved in DMSO, which was also the negative Control. The test items were tested up to the regulatory maximum dose level. The dose levels used were 5, 15, 50, 150, 500, 1500 or 5000 μg/plate, unless the highest treatment level of the test items was limited by solubility, or toxicity against the background bacterial lawn. Dose levels were expressed in terms of the free base.
There were no increases of 2-fold or greater in revertant numbers compared with negative Control values in either strain at any dose level in the presence or absence of S-9 mix, so Examples 50, 52 and 54 were not mutagenic in the Bacterial Reverse Mutation (i.e. Ames) Test under the conditions of this screen.

Data set [3] in a line: Brain to plasma (B:P) ratio in rat. The class given is in vivo, Sprague Dawley Rats. The settings on record: male, Sprague Dawley, iv, i.v. 0.5 mg/kg, 5% NMP in 30% HPBC in water, timepoints averaged 0.17-1 h.
The nature of data set [4]: Kinetic aqueous solubility assay. In kind it is physicochemical. The note with it: aqueous buffer, kinetic from dmso stock, 0.05M potassium phosphate buffer pH 7.4, 250 μM spike, RT. The method in brief: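 Compound added from DMSO stock into 0.05M potassium phosphate buffer pH 7.4 at 250 μM final, shaken 30 min at RT to induce precipitation (n=2). Appearance noted visually. Filtrate concentration determined by UV peak area against calibration standards.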

≈ marks a conversion by molar mass, not a printed value.

In data set [1] (iv), `O=C(Nc1ccc(OC(F)(F)Cl)cc1)c1ccc(=O)n(-c2cncc(F)c2)c1` [Example 54, N-[4-[Chloro(difluoro)methoxy]phenyl]-1-(5-fluoro-3-pyridyl)-6-oxo-pyridine-3-carboxamide] yielded a clearance of 4 mL/min/kg. For the same molecule, in data set [1] (iv, read-out: T½ (converted)), the half-life was 7.6 h. Moreover, in data set [1] (po, p.o. dose 3 mg/kg), the bioavailability is 97%. The “mutagenicity in the Bacterial Reverse Mutation (Ames) Test” value in data set [2] was “not mutagenic”. For the same molecule, in data set [3], the Kp amounted to 0.53. The molecule also displayed a solubility at 30 min in data set [4] of 170 µM (≈ 69.7 µg/mL).

Values taken from US20230002346A1, “NEW COMPOUNDS AND METHODS” (BenevolentAl Bio Limited, priority 2019, published 2023).
